The results in this text go back to patent US10029984B2, “Mono- or di-substituted indole derivatives as dengue viral replication inhibitors” (Janssen Pharmaceuticals, Inc., priority 2015, dated 2018).

In one data set the test system is DENV-2 strain 16681. The experiment in a line: Tetravalent RT-qPCR assay Protocol A, serotype 2. In kind it is cell-based. To be noted: Dengue virus, DENV2, 72 h; RT-qPCR serotype 2 16681, Vero cells, day 3. The method, then: (§1) The antiviral activity of the compounds of the invention was tested against DENV-1 strain TC974#666 (NCPV; Table 6), DENV-2 strain 16681 (Table 7), DENV-3 strain H87 (NCPV; Table 8) and DENV-4 strains H241 (NCPV; Table 9) in a RT-qPCR assay. Therefore, Vero cells were infected with either DENV-1, or -2, or -3, or -4 in the presence or absence of test compounds. At day 3 post-infection, the cells were lysed and cell lysates were used to prepare cDNA of both a viral target (the 3′UTR of DENV; table 2) and a cellular reference gene (β-actin, table 2). Subsequently, a duplex real time PCR was performed on a Lightcycler480 instrument. The generated Cp value is inversely proportional to the amount of RNA expression of these targets. Inhibition of DENV replication by a test compound result in a shift of Cp's for the 3′UTR gene. On the other hand, if a test compound is toxic to the cells, a similar effect on β-actin expression will be observed. The comparative ΔΔCp method is used to calculate EC50, which is based on the relative gene expression of the target gene (3′UTR) normalized with the cellular housekeeping gene (β-actin).
(§2) The culture medium consisted of minimal essential medium supplemented with 2% of heat-inactivated fetal calf serum, 0.04% gentamycin (50 mg/mL) and 2 mM of L-glutamine. Vero cells, obtained from ECACC, were suspended in culture medium and 75 μL/well was added in 96-well plates (10000 cells/well), which already contain the antiviral compounds. Typically, these plates contain a 4-fold serial dilution of 9 dilution steps of the test compound at 200 times the final concentration in 100% DMSO (500 nL; final concentration range: 25 μM-0.00038 μM). In addition, each plate contains wells which are assigned as virus controls (containing cells and virus in the absence of compound) and cell controls (containing cells in the absence of virus and compound). Once the cells were added in the plates, the plates were incubated in a fully humidified incubator (37° C., 5% CO2) until the next day. Then, DENV-1 strain TC974#666 at an MOI of 0.6, DENV-2 strain 16681 at an MOI of 0.01, DENV-3 strain H87 at an MOI of 1.0 and DENV-4 strains H241 at an MOI of 0.2 and SG/06K2270DK1/2005 at an MOI of 0.16, were added. Therefore, 25 μL of virus suspension was added to all the wells containing test compound and to the wells assigned as virus control. In parallel, 25 μL of culture medium was added to the cell controls. Next, the plates were incubated for 3 days in a fully humidified incubator (37° C., 5% CO2). After 3 days, the supernatant was removed from the wells and the cells were washed twice with ice-cold PBS (˜100 μL). The cell pellets within the 96-well plates were stored at −80° C. for at least 1 day. Next, RNA was extracted using the Cells-to-CT™ lysis kit, according to the manufacture's guideline (Applied Biosystems). The cell lysates can be stored at −80° C. or immediately used in the reverse transcription step.
(§3) In preparation of the reverse transcription step, mix A (table 3A) was prepared and 7.57 μL/well was dispensed in a 96-well plate. After addition of 5 μL of the cell lysates, a five minute denaturation step at 75° C. was performed (table 3B). Afterwards, 7.43 μL of mix B was added (table 3C) and the reverse transcription step was initiated (table 3D) to generate cDNA.
(§4) Finally, a RT-qPCR mix was prepared, mix C (table 4A), dispensed in 96-well LightCycler qPCR plates to which 3 μL of cDNA was added and the qPCR was performed according to the conditions in table 4B on a LightCycler 480. Using the LightCycler software and an in-house LIMS system, dose response curves for each compound were calculated and the half maximal effective concentration (EC50) and the half maximal cytotoxic concentration (CC50) were determined.
Background: Quantitative PCR measures a nucleic acid by following its amplification.

Another data set is described as follows: in vitro. It counts as cell-based. To be noted: African green monkey, CC50. The method, then:
as §1, §2, §4

In data set [1] the test system is Vero cells. The experiment in a line: in vitro. In kind it is cell-based. To be noted: African green monkey, 3 days. The method, then: as §1, §2, §4
The next data set relates to DENV-2 16681 strain. Kind of data set: DENV-2 antiviral assay (eGFP-labeled virus in Vero cells). It counts as cell-based, Dengue virus. Conditions: DENV-2 16681 eGFP, MOI 0.5, 3 days, listed as 13B*. In a few lines:
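Vero cells were pre-plated with compound overnight, then infected with eGFP-labeled DENV-2 16681 at MOI 0.5 and incubated 3 days at 37 °C. eGFP fluorescence read by automated microscopy; 9-point 4-fold dilutions (25 μM–0.00038 μM final) in quadruplicate, EC50 by linear interpolation versus virus and cell controls.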

Data set [2] relates to Vero cells. Kind of data set: in vitro. In kind it is cell-based. To be noted: African green monkey. In a few lines: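 On the same plates after eGFP read-out, resazurin was added and cells incubated a further 5 h at 37 °C, 5% CO2; resorufin fluorescence read with 530 nm excitation. CC50 is the concentration halving resazurin conversion versus cell control; SI = CC50/EC50.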

The next data set has as its system DENV-4 strains H241. Kind of data set: Tetravalent RT-qPCR assay Protocol A, serotype 4. To be noted: Dengue virus, DENV4, 72 h; RT-qPCR serotype 4 H241, Vero cells, day 3. In kind it is cell-based. The protocol:
as §1, §2, §3, §4

With `COc1cc(NC(C(=O)c2c[nH]c3c(F)c(F)ccc23)c2ccc(F)cc2OC)cc(S(C)(=O)=O)c1` (single isomer, unassigned) [Enantiomer 13B, 1-(6,7-difluoro-1H-indol-3-yl)-2-(4-fluoro-2-methoxyphenyl)-2-((3-methoxy-5-(methylsulfonyl)phenyl)amino)ethanone], the EC50 with DENV-2 strain 16681 was 0.675 nM; in the data set on DENV-2 16681 strain, 1.1 nM; in the data set with DENV-4 strains H241 it was 230 nM. In addition, it took 3710 nM to reach half-maximal cytotoxicity in “in vitro” (CC50 at 3 days). Also, the CC50 came out at 2600 nM in the data set with Vero cells [1] and 6700 nM in the data set on Vero cells [2].

For orientation: EC50 means the concentration needed to bring the measured effect to its halfway point. As a reminder, the CC50 is the concentration giving 50% cytotoxicity.
